ChEMBL document CHEMBL6096658, “Discovery of Potent, Highly Selective, and Efficacious SMARCA2 Degraders” (J Med Chem, 2025)
Activity calls are given as the source filed them. No cut-off for these calls is given here.

Key:
[1] = target: SWI/SNF-related matrix-associated actin-dependent regulator of chromatin subfamily A member 4 (Homo sapiens, UniProt P51532); experiment: Binding affinity to SMARCA4 (unknown origin) incubated for 30 mins by HTRF assay
[2] = target: SWI/SNF-related matrix-associated actin-dependent regulator of chromatin subfamily A member 2 (Homo sapiens, UniProt P51531); experiment: Binding affinity to SMARCA2 (unknown origin) incubated for 30 mins by HTRF assay
Sequence of SWI/SNF-related matrix-associated actin-dependent regulator of chromatin subfamily A member 2 (P51531 whole entry): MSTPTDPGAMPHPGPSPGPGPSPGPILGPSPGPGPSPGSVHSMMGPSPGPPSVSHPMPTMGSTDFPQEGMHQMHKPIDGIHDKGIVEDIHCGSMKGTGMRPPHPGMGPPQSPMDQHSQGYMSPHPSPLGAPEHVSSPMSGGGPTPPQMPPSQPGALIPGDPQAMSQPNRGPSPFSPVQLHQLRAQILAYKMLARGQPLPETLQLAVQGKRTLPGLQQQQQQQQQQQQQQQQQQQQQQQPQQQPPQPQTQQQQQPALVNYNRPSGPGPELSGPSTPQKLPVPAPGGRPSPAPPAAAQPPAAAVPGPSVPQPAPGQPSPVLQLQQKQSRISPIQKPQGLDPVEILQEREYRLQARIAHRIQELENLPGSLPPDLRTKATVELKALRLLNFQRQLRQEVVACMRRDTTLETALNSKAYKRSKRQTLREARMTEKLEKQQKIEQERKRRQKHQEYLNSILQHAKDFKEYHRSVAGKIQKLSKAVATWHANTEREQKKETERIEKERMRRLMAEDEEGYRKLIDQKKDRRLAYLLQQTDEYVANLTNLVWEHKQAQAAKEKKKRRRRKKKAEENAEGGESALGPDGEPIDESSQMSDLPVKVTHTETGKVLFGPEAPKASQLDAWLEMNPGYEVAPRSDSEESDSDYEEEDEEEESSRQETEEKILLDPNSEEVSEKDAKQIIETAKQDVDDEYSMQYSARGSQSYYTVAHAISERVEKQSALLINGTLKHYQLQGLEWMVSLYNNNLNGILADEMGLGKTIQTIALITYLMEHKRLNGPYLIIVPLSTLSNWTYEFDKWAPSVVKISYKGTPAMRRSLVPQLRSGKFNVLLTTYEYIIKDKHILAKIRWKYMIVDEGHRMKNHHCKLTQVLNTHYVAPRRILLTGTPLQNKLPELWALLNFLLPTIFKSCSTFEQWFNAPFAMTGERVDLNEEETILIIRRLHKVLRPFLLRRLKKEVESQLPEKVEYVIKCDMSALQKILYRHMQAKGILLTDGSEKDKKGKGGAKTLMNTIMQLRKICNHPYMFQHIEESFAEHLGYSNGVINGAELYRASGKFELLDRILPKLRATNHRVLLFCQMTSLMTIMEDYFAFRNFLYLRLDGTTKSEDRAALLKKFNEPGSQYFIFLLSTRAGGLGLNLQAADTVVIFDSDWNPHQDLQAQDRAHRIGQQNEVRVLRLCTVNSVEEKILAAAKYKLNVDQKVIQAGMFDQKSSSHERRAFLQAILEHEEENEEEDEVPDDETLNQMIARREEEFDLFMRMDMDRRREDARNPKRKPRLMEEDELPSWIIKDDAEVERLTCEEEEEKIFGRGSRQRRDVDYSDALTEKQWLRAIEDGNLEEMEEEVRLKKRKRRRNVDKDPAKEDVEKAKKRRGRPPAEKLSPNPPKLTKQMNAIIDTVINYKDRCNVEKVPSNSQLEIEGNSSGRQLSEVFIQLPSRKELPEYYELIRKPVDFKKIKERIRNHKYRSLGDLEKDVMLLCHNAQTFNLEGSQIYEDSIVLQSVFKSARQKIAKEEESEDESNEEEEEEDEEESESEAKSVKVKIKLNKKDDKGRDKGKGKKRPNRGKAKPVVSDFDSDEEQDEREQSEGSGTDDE

[3] = Selectivity ratio of DC50 for PROTAC activity at VHL/SMARCA4 in human HT-1080 cells (unknown origin) to DC50 for VHL/SMARCA2 in human HT-1080 cells (unknown origin); format: cell-based
[4] = target: T1, von Hippel-Lindau disease tumor suppressor/SWI/SNF-related matrix-associated actin-dependent regulator of chromatin subfamily A member 4 (Homo sapiens, UniProt P51532+P40337); experiment: PROTAC activity at VHL/SMARCA4 in human HT-1080 cells assessed as induction of SMARCA4 degradation incubated for 24 hrs by Nano-Glo HiBiT Lytic Detection Assay; format: cell-based
Target sequence in this assay (P51532 whole entry): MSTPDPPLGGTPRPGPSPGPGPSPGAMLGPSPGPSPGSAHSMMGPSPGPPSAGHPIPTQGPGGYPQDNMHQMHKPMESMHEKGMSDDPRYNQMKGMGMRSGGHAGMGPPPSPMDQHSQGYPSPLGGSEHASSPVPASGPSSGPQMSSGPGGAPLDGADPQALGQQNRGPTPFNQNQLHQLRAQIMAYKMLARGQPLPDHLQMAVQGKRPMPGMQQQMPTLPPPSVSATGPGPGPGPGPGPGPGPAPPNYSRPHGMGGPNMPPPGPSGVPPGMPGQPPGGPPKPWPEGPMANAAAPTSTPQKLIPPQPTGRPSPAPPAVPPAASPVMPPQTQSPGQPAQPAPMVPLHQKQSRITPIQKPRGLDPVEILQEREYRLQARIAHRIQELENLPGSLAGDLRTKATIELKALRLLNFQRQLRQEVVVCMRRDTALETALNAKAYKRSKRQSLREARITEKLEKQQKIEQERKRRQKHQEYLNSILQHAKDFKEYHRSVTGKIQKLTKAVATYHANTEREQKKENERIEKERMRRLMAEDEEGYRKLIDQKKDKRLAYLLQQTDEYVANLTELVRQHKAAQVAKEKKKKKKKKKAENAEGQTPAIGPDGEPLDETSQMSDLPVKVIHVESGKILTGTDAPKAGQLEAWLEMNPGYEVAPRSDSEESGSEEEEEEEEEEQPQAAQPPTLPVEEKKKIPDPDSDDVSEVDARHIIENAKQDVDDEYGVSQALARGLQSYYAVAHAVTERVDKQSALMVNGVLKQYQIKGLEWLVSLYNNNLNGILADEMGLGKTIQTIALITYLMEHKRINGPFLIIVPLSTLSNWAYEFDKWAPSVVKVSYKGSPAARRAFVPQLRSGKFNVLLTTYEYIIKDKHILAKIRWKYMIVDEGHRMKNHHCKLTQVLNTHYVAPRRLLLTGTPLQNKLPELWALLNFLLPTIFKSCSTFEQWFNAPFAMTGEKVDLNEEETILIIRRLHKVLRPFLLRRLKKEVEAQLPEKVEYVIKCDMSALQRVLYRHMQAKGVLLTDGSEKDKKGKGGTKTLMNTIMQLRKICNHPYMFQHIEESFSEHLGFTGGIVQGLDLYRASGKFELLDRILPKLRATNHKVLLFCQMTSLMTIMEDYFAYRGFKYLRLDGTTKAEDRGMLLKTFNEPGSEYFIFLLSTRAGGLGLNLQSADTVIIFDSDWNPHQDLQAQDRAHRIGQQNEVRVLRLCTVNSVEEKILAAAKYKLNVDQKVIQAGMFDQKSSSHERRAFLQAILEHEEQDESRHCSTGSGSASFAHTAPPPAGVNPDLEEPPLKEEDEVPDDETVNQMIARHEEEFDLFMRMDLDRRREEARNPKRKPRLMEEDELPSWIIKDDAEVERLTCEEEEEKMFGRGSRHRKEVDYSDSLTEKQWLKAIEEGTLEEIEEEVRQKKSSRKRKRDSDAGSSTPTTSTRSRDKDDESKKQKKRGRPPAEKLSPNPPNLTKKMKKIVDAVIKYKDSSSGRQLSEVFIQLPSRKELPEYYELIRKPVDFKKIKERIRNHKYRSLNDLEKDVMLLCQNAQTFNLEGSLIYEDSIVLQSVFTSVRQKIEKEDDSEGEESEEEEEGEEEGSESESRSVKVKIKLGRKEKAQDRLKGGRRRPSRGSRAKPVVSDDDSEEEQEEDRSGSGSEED
Target sequence in this assay (P40337 whole entry): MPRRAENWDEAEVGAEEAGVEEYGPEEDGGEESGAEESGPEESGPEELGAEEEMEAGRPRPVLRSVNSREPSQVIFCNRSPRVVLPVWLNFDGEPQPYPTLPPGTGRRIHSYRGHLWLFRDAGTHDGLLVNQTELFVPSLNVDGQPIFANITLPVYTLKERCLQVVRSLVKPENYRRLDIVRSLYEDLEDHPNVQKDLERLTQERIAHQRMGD

[5] = target: T1, von Hippel-Lindau disease tumor suppressor/SWI/SNF-related matrix-associated actin-dependent regulator of chromatin subfamily A member 4; experiment: PROTAC activity at VHL/SMARCA4 in human HT-1080 cells assessed as induction of SMARCA4 degradation by measuring maximum efficacy incubated for 6 hrs by Nano-Glo HiBiT Lytic Detection Assay relative to control; format: cell-based
Target sequence in this assay (P40337 whole entry, looked up): as the sequence (P40337 whole entry) above
Target sequence in this assay (P51532 whole entry, looked up): as the sequence (P51532 whole entry) above

[6] = target: T2, von Hippel-Lindau disease tumor suppressor/SWI/SNF-related matrix-associated actin-dependent regulator of chromatin subfamily A member 2 (Homo sapiens, UniProt P51531+P40337); experiment: PROTAC activity at VHL/SMARCA2 in human HT-1080 cells assessed as induction of SMARCA2 degradation by measuring maximum efficacy incubated for 6 hrs by Nano-Glo HiBiT Lytic Detection Assay relative to control; format: cell-based
Target sequence in this assay (P40337 whole entry, looked up): as the sequence (P40337 whole entry) above
Target sequence in this assay (P51531 whole entry, looked up): as the sequence (P51531 whole entry) above

[7] = target: T2, von Hippel-Lindau disease tumor suppressor/SWI/SNF-related matrix-associated actin-dependent regulator of chromatin subfamily A member 2; experiment: PROTAC activity at VHL/SMARCA2 in human HT-1080 cells assessed as induction of SMARCA2 degradation incubated for 24 hrs by Nano-Glo HiBiT Lytic Detection Assay; format: cell-based
Target sequence in this assay (P51531 whole entry): as above
Target sequence in this assay (P40337 whole entry): as the sequence (P40337 whole entry) above

[8] = target: von Hippel-Lindau disease tumor suppressor (Homo sapiens, UniProt P40337); experiment: Binding affinity to VHL (unknown origin) incubated for 30 mins by HTRF assay
Sequence of von Hippel-Lindau disease tumor suppressor (P40337 whole entry): as above

[9] = target: T2, von Hippel-Lindau disease tumor suppressor/SWI/SNF-related matrix-associated actin-dependent regulator of chromatin subfamily A member 2; experiment: Binding affinity to flag-tagged SMARCA2/VHL (unknown origin) assessed as ternary complex formation by measuring HTRF signal incubated for 120 mins by Envision reader analysis; format: protein assay
Target sequence in this assay (P40337 whole entry, looked up): as the sequence (P40337 whole entry) above
Target sequence in this assay (P51531 whole entry, looked up): as the sequence (P51531 whole entry) above

[10] = system: Calu-6; experiment: Antiproliferative activity against human Calu-6 cells assessed as cell growth inhibition incubated for 6 days by Cell Titer Glo assay; format: functional; settings: Calu-6, 144 h, time 6 day
[11] = system: NCI-H838; experiment: Antiproliferative activity against human NCI-H838 cells assessed as cell growth inhibition incubated for 6 days by Cell Titer Glo assay; format: functional; settings: NCI-H838, 144 h, time 6 day
[12] = target: T2, von Hippel-Lindau disease tumor suppressor/SWI/SNF-related matrix-associated actin-dependent regulator of chromatin subfamily A member 2; experiment: In vivo PROTAC activity at VHL/ SMARCA2 in female BALB/c mouse xenografted with human HT-1080 cells assessed as reduction in SMARCA2 level in tumor at 1 mg/kg, iv measured after 24 hrs relative to control; format: functional, organism-based; design: scale not given: the % may be the effect or the level left
Target sequence in this assay (P40337 whole entry, looked up): as the sequence (P40337 whole entry) above
Target sequence in this assay (P51531 whole entry, looked up): as the sequence (P51531 whole entry) above

[13] = system: NCI-H1568; experiment: Antiproliferative activity against human NCI-H1568 cells assessed as inhibition of cell proliferation incubated for 6 days by Cell Titer Glo assay; format: functional, cell-based; settings: time 6.0 day
[14] = system: HT-1080; experiment: Antiproliferative activity against human HT-1080 cells assessed as inhibition of cell proliferation incubated for 6 days by Cell Titer Glo assay; format: functional, cell-based; settings: time 6.0 day
[15] = system: NCI-H1573; experiment: Antiproliferative activity against human NCI-H1573 cells assessed as inhibition of cell proliferation incubated for 6 days by Cell Titer Glo assay; format: functional, cell-based; settings: time 6.0 day
[16] = system: Calu-6; experiment: Antiproliferative activity against human Calu-6 cells assessed as inhibition of cell proliferation incubated for 6 days by Cell Titer Glo assay; format: functional, cell-based; settings: time 6.0 day
[17] = target: T1, von Hippel-Lindau disease tumor suppressor/SWI/SNF-related matrix-associated actin-dependent regulator of chromatin subfamily A member 4; experiment: In vivo PROTAC activity at VHL/ SMARCA4 in female BALB/c mouse xenografted with human HT-1080 cells at 10 mg/kg, iv measured after 24 hrs relative to control; format: functional, organism-based
Target sequence in this assay (P40337 whole entry, looked up): as the sequence (P40337 whole entry) above
Target sequence in this assay (P51532 whole entry, looked up): as the sequence (P51532 whole entry) above

[18] = system: NCI-H1373; experiment: Antiproliferative activity against human NCI-H1373 cells assessed as inhibition of cell proliferation incubated for 6 days by Cell Titer Glo assay; format: functional, cell-based; settings: time 6.0 day
[19] = system: NCI-H838; experiment: Antiproliferative activity against human NCI-H838 cells assessed as inhibition of cell proliferation incubated for 6 days by Cell Titer Glo assay; format: functional, cell-based; settings: time 6.0 day
[20] = target: T2, von Hippel-Lindau disease tumor suppressor/SWI/SNF-related matrix-associated actin-dependent regulator of chromatin subfamily A member 2; experiment: In vivo PROTAC activity at VHL/ SMARCA2 in female BALB/c mouse xenografted with human HT-1080 cells assessed as reduction in SMARCA2 level in tumor at 10 mg/kg, iv measured after 24 hrs relative to control; format: functional, organism-based; design: scale not given: the % may be the effect or the level left
Target sequence in this assay (P40337 whole entry, looked up): as the sequence (P40337 whole entry) above
Target sequence in this assay (P51531 whole entry, looked up): as the sequence (P51531 whole entry) above

[21] = Metabolic stability in female BALB/c mouse microsomes assessed as half life administered intravenously; format: ADME; settings: route iv
[22] = target: T1, von Hippel-Lindau disease tumor suppressor/SWI/SNF-related matrix-associated actin-dependent regulator of chromatin subfamily A member 4; experiment: In vivo PROTAC activity at VHL/ SMARCA4 in female BALB/c mouse xenografted with human HT-1080 cells at 1 mg/kg, iv measured after 24 hrs relative to control; format: functional, organism-based
Target sequence in this assay (P40337 whole entry, looked up): as the sequence (P40337 whole entry) above
Target sequence in this assay (P51532 whole entry, looked up): as the sequence (P51532 whole entry) above

Sequence of SWI/SNF-related matrix-associated actin-dependent regulator of chromatin subfamily A member 4 (P51532 whole entry): as above

IC50 [1]	IC50 [2]	DC50 [4]	Emax [5]	Emax [6]	DC50 [7]	IC50 [8]	SMILES	Ratio [3]	other results
40 nM	17 nM						O=c1nc2n(c3cccc(Cl)c13)-c1cc(C3CCNCC3)ccc1C21CCCCC1		
83 nM	150 nM	35 nM	84%	94%	4.4 nM	15 nM	Cc1ncsc1-c1ccc([C@H](C)NC(=O)[C@@H]2C[C@@H](O)CN2C(=O)[C@@H](c2cc(N3CCC(CN4CCC(c5cccc6c5C(C)(C)c5nc(=O)c7c(Cl)cccc7n5-6)CC4)CC3)no2)C(C)C)cc1	8	Activity [9]: Active; Smarca2-Vhl Shows 30% Higher Auc Compared To Smarca4-Vhl Was Observed
5.5 nM	2.8 nM						CC1(C)c2cc(C3CCNCC3)ccc2-n2c1nc(=O)c1c(Br)cccc12		
18 nM	8.8 nM						O=c1nc2n(c3cccc(Cl)c13)-c1ccc(C3CCNCC3)cc1C21CCCCC1		
		> 1000 nM	34%	93%	6.4 nM	280 nM	Cc1ncsc1-c1ccc([C@H](C)NC(=O)[C@@H]2C[C@@H](O)CN2C(=O)[C@@H](NC(=O)[C@H]2CC[C@H](CN3CCC(c4ccc5c(c4)-n4c(nc(=O)c6c(Br)cccc64)C5(C)C)CC3)CC2)C(C)(C)C)cc1	> 100	GI50 [10]: > 1000 nM; GI50 [11]: 40 nM
110 nM	34 nM	12 nM	92%	97%	1.7 nM	6.2 nM	Cc1ncsc1-c1ccc([C@H](C)NC(=O)[C@@H]2C[C@@H](O)CN2C(=O)[C@@H](c2cc(OCC(C)CN3CCC(c4ccc5c(c4)-n4c(nc(=O)c6c(Cl)cccc64)C5(C)C)CC3)no2)C(C)C)cc1 (stereo partly drawn)	7	
43 nM	47 nM	1.2 nM	97%	99%	0.16 nM	9.3 nM	Cc1ncsc1-c1ccc([C@H](C)NC(=O)[C@@H]2C[C@@H](O)CN2C(=O)[C@@H](c2cc(OC3CCC(N4CCC(c5ccc6c(c5)C(C)(C)c5nc(=O)c7c(Cl)cccc7n5-6)CC4)CC3)no2)C(C)C)cc1 (stereo partly drawn)	7.5	
24 nM	13 nM						O=c1nc2n(c3cccc(Cl)c13)-c1ccc(C3CCNCC3)cc1C21CCCC1		
97 nM	70 nM	22 nM	93%	98%	1.9 nM	16 nM	Cc1ncsc1-c1ccc([C@H](C)NC(=O)[C@@H]2C[C@@H](O)CN2C(=O)[C@@H](c2cc(OCCCCN3CCC(c4ccc5c(c4)C(C)(C)c4nc(=O)c6c(Cl)cccc6n4-5)CC3)no2)C(C)C)cc1	12	
10 nM	4.6 nM						O=c1nc2n(c3cccc(Br)c13)-c1ccc(C3CCNCC3)cc1C21CCCCC1		
38 nM	15 nM						CC1(C)c2ccc(C3CCNCC3)cc2-n2c1nc(=O)c1c(Cl)cccc12		
79 nM	88 nM	31 nM	80%	96%	2.1 nM	22 nM	Cc1ncsc1-c1ccc([C@H](C)NC(=O)[C@@H]2C[C@@H](O)CN2C(=O)[C@@H](c2cc(OCCN3CCC(c4ccc5c(c4)C(C)(C)c4nc(=O)c6c(Cl)cccc6n4-5)CC3)no2)C(C)C)cc1	15	
150 nM	53 nM						O=c1nc2n(c3cccc(Cl)c13)-c1ccc(C3CCNCC3)cc1C21CCCCCC1		
		0.85 nM	97%	98%	0.22 nM	2.1 nM	Cc1ncsc1-c1ccc([C@H](C)NC(=O)[C@@H]2C[C@@H](O)CN2C(=O)[C@H](C(C)C)n2cc([C@H]3CC[C@H](CN4CCC(c5ccc6c(c5)C(C)(C)c5nc(=O)c7c(Cl)cccc7n5-6)CC4)CC3)nn2)cc1	4	Activity [12]: 94%; Activity [13]: Active; GI50 [10]: 280 nM; GI50 [11]: 3 nM; Activity [14]: Active; Activity [15]: Active; Activity [16]: Active; Activity [17]: 93%; Activity [18]: Active; Activity [19]: Active; Activity [20]: > 95%; half-life [21]: 5 h; Activity [22]: 54%
100 nM	72 nM	280 nM	53%	87%	13 nM	15 nM	Cc1ncsc1-c1ccc([C@H](C)NC(=O)[C@@H]2C[C@@H](O)CN2C(=O)[C@@H](c2cc(OCC3(CN4CCC(c5ccc6c(c5)C(C)(C)c5nc(=O)c7c(Cl)cccc7n5-6)CC4)CC3)no2)C(C)C)cc1	22	
		> 1000 nM	25%	92%	10 nM	370 nM	Cc1ncsc1-c1ccc([C@H](C)NC(=O)[C@@H]2C[C@@H](O)CN2C(=O)[C@@H](NC(=O)[C@H]2CC[C@H](CN3CCC(c4ccc5c(c4)-n4c(nc(=O)c6c(Cl)cccc64)C5(C)C)CC3)CC2)C(C)(C)C)cc1	> 100	
500 nM	350 nM						Cc1ncsc1-c1ccc([C@H](C)NC(=O)[C@@H]2C[C@@H](O)CN2C(=O)[C@@H](c2cc(CN3CCC(c4ccc5c(c4)C(C)(C)c4nc(=O)c6c(Cl)cccc6n4-5)CC3)no2)C(C)C)cc1		
36 nM	12 nM						CC1(C)c2cc(C3CCNCC3)ccc2-n2c1nc(=O)c1c(Cl)cccc12		
170 nM	68 nM						CC1(C)c2c(C3CCNCC3)cccc2-n2c1nc(=O)c1c(Cl)cccc12		
9100 nM	3500 nM						O=c1nc2n(c3cccc(Cl)c13)-c1ccc(C3CCNCC3)cc1C21CCNCC1		
83 nM	60 nM	26 nM	92%	98%	1.4 nM	17 nM	Cc1ncsc1-c1ccc([C@H](C)NC(=O)[C@@H]2C[C@@H](O)CN2C(=O)[C@@H](c2cc(OCCCN3CCC(c4ccc5c(c4)C(C)(C)c4nc(=O)c6c(Cl)cccc6n4-5)CC3)no2)C(C)C)cc1	18	
27 nM	16 nM	3.9 nM		98%	0.61 nM	6.4 nM	Cc1ncsc1-c1ccc([C@H](C)NC(=O)[C@@H]2C[C@@H](O)CN2C(=O)[C@@H](c2cc(N3CCC(CN4CCC(c5ccc6c(c5)C(C)(C)c5nc(=O)c7c(Cl)cccc7n5-6)CC4)CC3)no2)C(C)C)cc1		
